{"source": "patent US20130089502A1", "about": "“PET RADIOPHARMACEUTICALS FOR DIFFERENTIAL DIAGNOSIS BETWEEN BILATERAL AND UNILATERAL CONDITIONS OF PRIMARY HYPERALDOSTERONISM” (UNIVERSITAT DES SAARLANDES, priority 2010, published 2013)", "key": {"[1]": {"biological_target": "T1, human CYP11B2 (aldosterone synthase) (Homo sapiens, UniProt P19099)", "T1 construct": "expressed in transfected cells; host or cells: Y1 cells", "T1 sequence (P19099 25-503)": "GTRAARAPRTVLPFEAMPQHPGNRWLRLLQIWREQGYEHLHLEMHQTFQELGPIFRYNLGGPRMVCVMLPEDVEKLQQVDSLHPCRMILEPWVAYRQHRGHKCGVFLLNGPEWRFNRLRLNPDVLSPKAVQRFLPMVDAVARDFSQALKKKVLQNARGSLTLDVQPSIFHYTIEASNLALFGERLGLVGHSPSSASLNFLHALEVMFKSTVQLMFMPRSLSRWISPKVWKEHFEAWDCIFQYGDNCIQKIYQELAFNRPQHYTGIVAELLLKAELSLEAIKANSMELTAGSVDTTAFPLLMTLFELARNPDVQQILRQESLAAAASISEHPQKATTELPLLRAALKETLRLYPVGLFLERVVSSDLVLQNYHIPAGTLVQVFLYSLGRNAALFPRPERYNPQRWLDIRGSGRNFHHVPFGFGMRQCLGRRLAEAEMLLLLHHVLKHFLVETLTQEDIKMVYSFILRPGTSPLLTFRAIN", "assay": "Inhibition of human CYP11B2 (aldosterone synthase) expressed in Y1 cells", "format": "cell-based", "conditions": "hsCYP11B2-expressing Y1 cells; substrate 1 μM; inhibitor 0.1 nM-10 μM; 48 hours incubation", "procedure": "(§1) Several non-radioactive fluorinated analogs of the above radioactive tracers were prepared for testing affinity for CYP11B2 (aldosterone synthase), expressed as IC50, and selectivity for CYP11B2 over CYP11B1 (11β-hydroxylase), referred to herein as the selectivity factor, in vitro as follows:\n(§2) To conduct in vitro testing of nonradioactive compounds 1a*, 1b*, 1j*, 2a*, 2c*, 2d*, and 2e* to determine IC50 values for inhibition of CYP11B1 and CYP11B2, human CYP11B1 and CYP11B2 enzymes were expressed in Y1 cells using liposome/lipid-mediated DNA transfection. To evaluate CYP11B1 and CYP11B2 inhibition, hsCYP11B1- and hsCYP11B2-expressing Y1 cells were subcultured on 6-well plates (0.5×10^6 cells/well) in 2 ml of culture medium. The enzyme reaction was started after 24 hours by the addition of 1 ml culture medium containing either 11-deoxycortisol (RSS) or 11-deoxycorticosterone (DOC) as substrate and the corresponding inhibitor. RSS and DOC were dissolved in ethanol to a final test concentration of 1 μM. For determination of IC50 values, the inhibitors were added to the culture medium at concentrations between 0.1 nM-10 μM and incubated for 48 hours. Cells which were treated in the same way but without inhibitors, served as controls. As further controls, untransfected Y1 cells were also incubated with RSS and DOC, respectively. […]"}, "[2]": {"biological_target": "T2, human CYP11B1 (11β-hydroxylase) (Homo sapiens, UniProt P15538)", "T2 construct": "expressed in transfected cells; host or cells: Y1 cells", "T2 sequence (P15538 25-503)": "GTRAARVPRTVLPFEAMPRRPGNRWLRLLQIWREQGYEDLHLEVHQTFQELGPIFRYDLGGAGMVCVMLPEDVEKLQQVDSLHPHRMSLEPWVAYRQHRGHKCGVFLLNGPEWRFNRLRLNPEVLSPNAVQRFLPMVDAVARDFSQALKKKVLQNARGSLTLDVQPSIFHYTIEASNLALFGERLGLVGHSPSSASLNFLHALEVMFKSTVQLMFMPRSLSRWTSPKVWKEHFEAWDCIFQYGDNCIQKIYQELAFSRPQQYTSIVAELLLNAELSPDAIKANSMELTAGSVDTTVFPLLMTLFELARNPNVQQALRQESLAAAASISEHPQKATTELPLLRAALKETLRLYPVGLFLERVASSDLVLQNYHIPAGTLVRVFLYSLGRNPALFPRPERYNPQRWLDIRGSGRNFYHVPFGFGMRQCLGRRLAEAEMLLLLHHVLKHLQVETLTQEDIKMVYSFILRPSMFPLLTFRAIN", "assay": "Inhibition of human CYP11B1 expressed in Y1 cells, used for the selectivity factor versus CYP11B2", "format": "cell-based", "conditions": "ratio of IC50 values in hsCYP11B1- and hsCYP11B2-expressing Y1 cells; 48 hours incubation", "procedure": "as §1, §2"}}, "data": [{"molecule": "COc1ccc2cc(-c3cncc(OCCF)c3)ccc2c1", "note": "[Compound 1a, 3-(6-methoxy-2-naphthyl)-5-(2-fluoroethoxy)pyridine]", "values": [{"measurement": "IC50", "setting": "[1]", "result": "0.0065 ± 0.0038", "unit": "µM"}, {"measurement": "Selectivity Factor (IC50 CYP11B1/IC50 CYP11B2)", "setting": "[2]", "result": 104}]}, {"molecule": "FCCOc1ccc2cc(-c3cncc4ccccc34)ccc2c1", "note": "[Compound 1j]", "values": [{"measurement": "IC50", "setting": "[1]", "result": "0.0158 ± 0.0051", "unit": "µM"}, {"measurement": "Selectivity Factor (IC50 CYP11B1/IC50 CYP11B2)", "setting": "[2]", "result": ">100"}]}]}
